Source: patent publication US11058678B2 (Enanta Pharmaceuticals, Inc., priority 2018, dated 2021)

Each compound was assayed on HBV (2.2.15 cells) (assay: Antiviral activity in 2.2.15 cells: reduction of viral product accumulation (qPCR of lysates, HBsAg or HBeAg ELISA)). Details: Hepatitis B virus, 120 h, day 5 post treatment, 50% reduction of viral product accumulation in lysates or supernatants vs no drug controls, readout (qPCR, HBsAg, HBeAg) not specified.
Format: cell-based, hepatitis B virus (HBV)
Description: 2.2.15 cells are passaged upon attaining confluency in DMEM/F12 media in the presence of 10% FBS, Penn/Strep, and 250 ug/mL G418. Novel compounds are 5 fold serially diluted in DMSO and added to 96 well plates containing 35,000 cells/well at a 1:200 dilution so that the final concentration of DMSO is 0.5%. On day 5, post treatment cell lysates and supernatants are harvested for analysis.
Cells are lysed using Agilent Sidestep Lysis buffer, diluted 1:100 and quantified via quantitative real time PCR. Commercially available ELISA kits are used to quantitate the viral proteins HBsAg (Alpco) or HBeAg (US Biological) by following the manufacturer's recommended protocol after diluting samples to match the linear range of their respective assays. Irrespective of readout, compound concentrations that reduce viral product accumulation in the cell lysates or supernatants by 50% relative to no drug controls (EC50) are reported; EC50 ranges are as follows: A<0.1 μM; B 0.1-1 μM; C>1 μM.
Compound `COCCCCc1cc2c(cc1N1CC(F)(F)C1)-c1cc(=O)c(C(=O)O)cn1[C@H](C(C)(C)C)C2` [Example 153, (S)-6-(tert-butyl)-10-(3,3-difluoroazetidin-1-yl)-9-(4-methoxybutyl)-2-oxo-6,7-dihydro-2H-pyrido[2,1-a]isoquinoline-3-carboxylic Acid] has an EC50 of less than 100 nM.
`COCCCOc1cc2c(cc1-c1nnnn1C)-c1cc(=O)c(C(=O)O)cn1[C@H](C(C)(C)C)C2` [Example 35, (S)-6-(tert-butyl)-9-(3-methoxypropoxy)-10-(1-methyl-1H-tetrazol-5-yl)-2-oxo-6,7-dihydro-2H-pyrido[2,1-a]isoquinoline-3-carboxylic Acid] was tested, and the EC50 was less than 100 nM.
For `COCCCOc1cc2c(cc1-c1cccc(OC(F)(F)F)c1)-c1cc(=O)c(C(=O)O)cn1[C@H](C(C)(C)C)C2` [Example 57, (S)-6-(tert-butyl)-9-(3-methoxypropoxy)-2-oxo-10-(3-(trifluoromethoxy)phenyl)-6,7-dihydro-2H-pyrido[2,1-a]isoquinoline-3-carboxylic Acid], the EC50 was greater than 1000 nM.
In the case of `COCCCOc1cc2c(cc1-c1cccc(OC)c1)-c1cc(=O)c(C(=O)O)cn1[C@H]1[C@@H]2COC1(C)C` [Example 140, (3aS,12bR)-10-(3-methoxyphenyl)-11-(3-methoxypropoxy)-3,3-dimethyl-7-oxo-3,3a,7,12b-tetrahydro-1H-furo[3,4-c]pyrido[2,1-a]isoquinoline-6-carboxylic Acid], the EC50 is reported as less than 100 nM.
With `CC(C)[C@@H]1Cc2c(cc(-c3cccc(F)c3)c3c2CCO3)-c2cc(=O)c(C(=O)O)cn21` [Example 107, (S)-12-(3-fluorophenyl)-5-isopropyl-9-oxo-2,3,4,9-tetrahydro-5H-furo[3,2-f]pyrido[2,1-a]isoquinoline-8-carboxylic Acid] the EC50 was less than 100 nM.
In the case of `COCCCOc1cc2c(cc1-c1ccnn1C)-c1cc(=O)c(C(=O)O)cn1[C@H]1[C@@H]2COC1(C)C` [Example 122, (3aS,12bR)-11-(3-methoxypropoxy)-3,3-dimethyl-10-(1-methyl-1H-pyrazol-5-yl)-7-oxo-3,3a,7,12b-tetrahydro-1H-furo[3,4-c]pyrido[2,1-a]isoquinoline-6-carboxylic Acid], the EC50 is reported as greater than 1000 nM.
With `CC1(C)Cc2c3c(cc(-c4ccco4)c2O1)-c1cc(=O)c(C(=O)O)cn1[C@H](C(C)(C)C)C3` [Example 148, (S)-5-(tert-butyl)-12-(furan-2-yl)-2,2-dimethyl-9-oxo-2,3,4,9-tetrahydro-5H-furo[3,2-f]pyrido[2,1-a]isoquinoline-8-carboxylic Acid] the EC50 was greater than 1000 nM.
Work on `COCCCOc1cc2c(cc1-c1ccccc1)-c1cc(=O)c(C(=O)O)cn1[C@H]1[C@@H]2COC1(C)C` [Example 141] yielded an EC50 of less than 100 nM.
`COCCCOc1cc2c(cc1C1CCCCO1)-c1cc(=O)c(C(=O)O)cn1[C@H](C(C)(C)C)C2` (stereo partly drawn) [Example 41, (6S)-6-(tert-butyl)-9-(3-methoxypropoxy)-2-oxo-10-(tetrahydro-2H-pyran-2-yl)-6,7-dihydro-2H-pyrido[2,1-a]isoquinoline-3-carboxylic Acid] gave an EC50 of less than 100 nM.
`CC(C)[C@@H]1Cc2c(cc(-c3ccoc3)c3c2CCO3)-c2cc(=O)c(C(=O)O)cn21` [Example 90, (S)-12-(furan-3-yl)-5-isopropyl-9-oxo-2,3,4,9-tetrahydro-5H-furo[3,2-f]pyrido[2,1-a]isoquinoline-8-carboxylic Acid] was tested, and the EC50 was less than 100 nM.
`CC(C)[C@@H]1Cc2c(cc(-c3ccc(F)cc3)c3c2CCO3)-c2cc(=O)c(C(=O)O)cn21` [Example 89, (S)-12-(4-fluorophenyl)-5-isopropyl-9-oxo-2,3,4,9-tetrahydro-5H-furo[3,2-f]pyrido[2,1-a]isoquinoline-8-carboxylic Acid] showed an EC50 of less than 100 nM.
`COCCCOc1cc2c(cc1-c1ccn(C)n1)-c1cc(=O)c(C(=O)O)cn1[C@H]1[C@@H]2COC1(C)C` [Example 124, (3aS,12bR)-11-(3-methoxypropoxy)-3,3-dimethyl-10-(1-methyl-1H-pyrazol-3-yl)-7-oxo-3,3a,7,12b-tetrahydro-1H-furo[3,4-c]pyrido[2,1-a]isoquinoline-6-carboxylic Acid] was tested, and the EC50 was less than 100 nM.
`COCCCOc1cc2c(cc1-c1ccc3oncc3c1)-c1cc(=O)c(C(=O)O)cn1[C@H](C(C)(C)C)C2` [Example 47, (S)-10-(benzo[d]isoxazol-5-yl)-6-(tert-butyl)-9-(3-methoxypropoxy)-2-oxo-6,7-dihydro-2H-pyrido[2,1-a]isoquinoline-3-carboxylic Acid] was tested, and the EC50 was greater than 1000 nM.
`CC1(C)Cc2c3c(cc(-c4ccoc4)c2O1)-c1cc(=O)c(C(=O)O)cn1[C@H](C(C)(C)C)C3` [Example 133, (S)-5-(tert-butyl)-12-(furan-3-yl)-2,2-dimethyl-9-oxo-2,3,4,9-tetrahydro-5H-furo[3,2-f]pyrido[2,1-a]isoquinoline-8-carboxylic acid] showed an EC50 of 100 to 1000 nM.
In the case of `CC(C)[C@@H]1Cc2c(cc(-c3cnco3)c3c2CCO3)-c2cc(=O)c(C(=O)O)cn21` [Example 91, (S)-5-isopropyl-12-(oxazol-5-yl)-9-oxo-2,3,4,9-tetrahydro-5H-furo[3,2-f]pyrido[2,1-a]isoquinoline-8-carboxylic Acid], the EC50 is reported as less than 100 nM.
For `CC(C)[C@@H]1Cc2c(cc(-c3cccs3)c3c2CCO3)-c2cc(=O)c(C(=O)O)cn21` [Example 99, (S)-5-isopropyl-9-oxo-12-(thiophen-2-yl)-2,3,4,9-tetrahydro-5H-furo[3,2-f]pyrido[2,1-a]isoquinoline-8-carboxylic Acid], the EC50 was less than 100 nM.
Work on `COCCCOc1cc2c(cc1-c1ccc(OC3CC3)cc1)-c1cc(=O)c(C(=O)O)cn1[C@H](C(C)(C)C)C2` [Example 40, (S)-6-(tert-butyl)-10-(4-cyclopropoxyphenyl)-9-(3-methoxypropoxy)-2-oxo-6,7-dihydro-2H-pyrido[2,1-a]isoquinoline-3-carboxylic Acid] yielded an EC50 greater than 1000 nM.
Work on `CC(C)[C@@H]1Cc2c(cc(-c3cnsc3)c3c2CCO3)-c2cc(=O)c(C(=O)O)cn21` [Example 103, (S)-5-isopropyl-12-(isothiazol-4-yl)-9-oxo-2,3,4,9-tetrahydro-5H-furo[3,2-f]pyrido[2,1-a]isoquinoline-8-carboxylic Acid] yielded an EC50 of less than 100 nM.
`COCCCOc1cc2c(cc1-c1cn[nH]c1)-c1cc(=O)c(C(=O)O)cn1[C@H]1[C@@H]2COC1(C)C` [Example 135, (3aS,12bR)-11-(3-methoxypropoxy)-3,3-dimethyl-7-oxo-10-(1H-pyrazol-4-yl)-3,3a,7,12b-tetrahydro-1H-furo[3,4-c]pyrido[2,1-a]isoquinoline-6-carboxylic Acid] was tested, and the EC50 was less than 100 nM.
`CC(C)[C@@H]1Cc2c(cc(-c3cn[nH]c3)c3c2CCO3)-c2cc(=O)c(C(=O)O)cn21` [Example 102, (S)-5-isopropyl-9-oxo-12-(1H-pyrazol-4-yl)-2,3,4,9-tetrahydro-5H-furo[3,2-f]pyrido[2,1-a]isoquinoline-8-carboxylic Acid] was tested, and the EC50 was less than 100 nM.
With `CC1(C)Cc2c3c(cc(-c4cnsc4)c2O1)-c1cc(=O)c(C(=O)O)cn1[C@H](C(C)(C)C)C3` [Example 145, (S)-5-(tert-butyl)-12-(isothiazol-4-yl)-2,2-dimethyl-9-oxo-2,3,4,9-tetrahydro-5H-furo[3,2-f]pyrido[2,1-a]isoquinoline-8-carboxylic Acid] the EC50 was greater than 1000 nM.
With `CC(C)(C)[C@@H]1Cc2c(cc(N3CCCC3)c3c2CCO3)-c2cc(=O)c(C(=O)O)cn21` [Example 88, (S)-5-(tert-butyl)-9-oxo-12-(pyrrolidin-1-yl)-2,3,4,9-tetrahydro-5H-furo[3,2-f]pyrido[2,1-a]isoquinoline-8-carboxylic Acid] the EC50 was less than 100 nM.
